Laboratory results published in PubChem BioAssay AID248 (DTP/NCI, 2004).
Values joined by “and” are separate entries in the source; they are usually repeats but may differ in a detail not shown here. Equal entries are not always repeated. Toxic doses and inconclusive results are not listed. Cut-off read from the data, not from the text of the source: active = T/C of 150% or more; inactive = T/C below 125%.

Test system: L1210 leukemia ip in BDF1 mice, survival T/C
Assay: NCI In Vivo Anticancer Drug Screen. Data for tumor model L1210 Leukemia (intraperitoneal) in B6D2F1 (BDF1) mice
Details: endpoint: mean survival time, higher = longer survival
How it was run: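 Ratio derived from survival: compound-dosed mice over vehicle-dosed mice, all bearing a transplantable tumor.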

[1] = dose: 100.0 mg/kg/injection, schedule: Q04DX002 (ip), vehicle: Klucel (hydroxypropylcellulose) (HPC)
[2] = dose: 100.0 mg/kg/injection, schedule: Q04DX003 (ip), vehicle: Klucel (hydroxypropylcellulose) (HPC)
[3] = dose: 200.0 mg/kg/injection, schedule: Q04DX002 (ip), vehicle: Klucel (hydroxypropylcellulose) (HPC)
[4] = dose: 200.0 mg/kg/injection, schedule: Q04DX003 (ip), vehicle: Klucel (hydroxypropylcellulose) (HPC)
[5] = dose: 400.0 mg/kg/injection, schedule: Q04DX002 (ip), vehicle: Klucel (hydroxypropylcellulose) (HPC)
[6] = dose: 400.0 mg/kg/injection, schedule: Q04DX003 (ip), vehicle: Klucel (hydroxypropylcellulose) (HPC)
[7] = dose: 100.0 mg/kg/injection, schedule: Q01DX001 (ip), vehicle: saline
[8] = dose: 100.0 mg/kg/injection, schedule: Q01DX009 (ip), vehicle: saline
[9] = dose: 100.0 mg/kg/injection, schedule: Q04DX003 (ip), vehicle: saline
[10] = dose: 200.0 mg/kg/injection, schedule: Q01DX001 (ip), vehicle: saline
[11] = dose: 200.0 mg/kg/injection, schedule: Q01DX009 (ip), vehicle: saline
[12] = dose: 200.0 mg/kg/injection, schedule: Q04DX003 (ip), vehicle: saline
[13] = dose: 400.0 mg/kg/injection, schedule: Q01DX001 (ip), vehicle: saline
[14] = dose: 400.0 mg/kg/injection, schedule: Q01DX009 (ip), vehicle: saline
[15] = dose: 50.0 mg/kg/injection, schedule: Q01DX001 (ip), vehicle: other
[16] = dose: 100.0 mg/kg/injection, schedule: Q01DX001 (ip), vehicle: other
[17] = dose: 400.0 mg/kg/injection, schedule: Q01DX001 (ip), vehicle: other
[18] = dose: 100.0 mg/kg/injection, schedule: Q01DX001 (ip), vehicle: carboxymethylcellulose (CMC)
[19] = dose: 200.0 mg/kg/injection, schedule: Q01DX001 (ip), vehicle: carboxymethylcellulose (CMC)
[20] = dose: 400.0 mg/kg/injection, schedule: Q01DX001 (ip), vehicle: carboxymethylcellulose (CMC)
[21] = dose: 100.0 mg/kg/injection, schedule: Q04DX003 (ip), vehicle: saline with Tween-80
[22] = dose: 200.0 mg/kg/injection, schedule: Q04DX003 (ip), vehicle: saline with Tween-80
[23] = dose: 400.0 mg/kg/injection, schedule: Q04DX003 (ip), vehicle: saline with Tween-80

Measured: T/C

CCOC(=O)Nc1cc([N+](=O)[O-])ccc1OC
inactive: dose: 100.0 mg/kg/injection, schedule: Q01DX001 (ip), vehicle: Klucel (hydroxypropylcellulose) (HPC) 105 % of control | dose: 100.0 mg/kg/injection, schedule: Q01DX009 (ip), vehicle: Klucel (hydroxypropylcellulose) (HPC) 105 % of control | [1] 96 % of control and 104 % of control | [2] 101 % of control | dose: 200.0 mg/kg/injection, schedule: Q01DX001 (ip), vehicle: Klucel (hydroxypropylcellulose) (HPC) 100 % of control | dose: 200.0 mg/kg/injection, schedule: Q01DX009 (ip), vehicle: Klucel (hydroxypropylcellulose) (HPC) 108 % of control | [3] 96 % of control and 97 % of control | [4] 98 % of control | dose: 400.0 mg/kg/injection, schedule: Q01DX001 (ip), vehicle: Klucel (hydroxypropylcellulose) (HPC) 101 % of control | dose: 400.0 mg/kg/injection, schedule: Q01DX009 (ip), vehicle: Klucel (hydroxypropylcellulose) (HPC) 102 % of control | [5] 96 % of control and 103 % of control | [6] 101 % of control

CC(NC(=O)OCc1ccccc1)C(=O)Oc1cc(Cl)c(Cl)cc1Cl (centres undefined)
inactive: [7] 92 % of control | [8] 95 % of control | [9] 91 % of control | [10] 97 % of control | [11] 93 % of control | [4] 87 % of control | [12] 91 % of control | [13] 92 % of control | [14] 92 % of control

CCCCCCCCN(C)/N=N/c1nc[nH]c1C(=O)OCC
inactive: [15] 94 % of control | [16] 105 % of control | dose: 200.0 mg/kg/injection, schedule: Q01DX001 (ip), vehicle: other 113 % of control | [17] 105 % of control

COc1cc2c(cc1OC)C1C(C)c3ccc(OC)c(OC)c3CN1CC2 (centres undefined)
inactive: [18] 100 % of control | [19] 100 % of control | [20] 96 % of control

O=C(CC(O)(C(F)(F)F)C(F)(F)F)c1ccccc1Br
inactive: [21] 97 % of control | [22] 97 % of control | [23] 95 % of control

C1=CN2CC(c3ccccc3)=NNC2c2ccccc21 (centres undefined)
inactive: dose: 100.0 mg/kg/injection, schedule: Q04DX003 (ip), vehicle: alcohol 107 % of control | [9] 97 % of control | [12] 97 % of control

c1ccc2nc(CCC3CCCCN3)ccc2c1 (centres undefined)
inactive: dose: 333.0 mg/kg/injection, schedule: Q01DX Z (ip), vehicle: methylcellulose (MC) 101 % of control

O=[N+]([O-])c1ccc(Sc2ccsc2)c([N+](=O)[O-])c1
inactive: [7] 101 % of control | [10] 98 % of control

[Co+3].[NH-]CC(=O)[O-].[NH-]CCN(CC[NH-])CC[NH-].[O-][Cl+3]([O-])([O-])O
inactive: dose: 50.0 mg/kg/injection, schedule: Q01DX001 (ip), vehicle: saline 103 % of control | [7] 100 % of control | [10] 103 % of control | [13] 105 % of control

O=C(Nc1ccc(Cl)c(C(F)(F)F)c1)Oc1ccccn1
inactive: dose: 12.5 mg/kg/injection, schedule: Q01DX009 (ip), vehicle: saline with Tween-80 101 % of control | dose: 25.0 mg/kg/injection, schedule: Q01DX009 (ip), vehicle: saline with Tween-80 99 % of control | dose: 50.0 mg/kg/injection, schedule: Q01DX009 (ip), vehicle: saline with Tween-80 92 % of control | dose: 100.0 mg/kg/injection, schedule: Q01DX009 (ip), vehicle: saline with Tween-80 93 % of control

FC(F)(F)c1ccc2c(c1)C1c3ccccc3C2c2ccccc21
inactive: [8] 98 % of control | [9] 100 % of control | [11] 100 % of control | [12] 98 % of control | [14] 91 % of control | dose: 400.0 mg/kg/injection, schedule: Q04DX003 (ip), vehicle: saline 100 % of control

O=C(O)COc1ccc(F)c(F)c1F
inactive: dose: 100.0 mg/kg/injection, schedule: Q04DX002 (ip), vehicle: other 107 % of control | dose: 200.0 mg/kg/injection, schedule: Q04DX002 (ip), vehicle: other 100 % of control | dose: 400.0 mg/kg/injection, schedule: Q04DX002 (ip), vehicle: other 91 % of control

N#Cc1csc(CCNC(=O)c2ccccc2)n1
inactive: dose: 100.0 mg/kg/injection, schedule: Q01DX001 (ip), vehicle: saline with Tween-80 105 % of control | [21] 100 % of control | dose: 200.0 mg/kg/injection, schedule: Q01DX001 (ip), vehicle: saline with Tween-80 104 % of control | [22] 93 % of control | dose: 400.0 mg/kg/injection, schedule: Q01DX001 (ip), vehicle: saline with Tween-80 93 % of control | [23] 94 % of control

CCCCCCCCCC[Si](C)(C)C
inactive: [7] 100 % of control | [10] 97 % of control | [13] 100 % of control

Cc1cc2c(cc1C)NC(=O)CC(c1ccccc1)=N2
inactive: [18] 98 % of control | [19] 93 % of control | [20] 98 % of control

O=C(Oc1ccc(Cl)cc1Cl)c1ccc([N+](=O)[O-])cc1
inactive: [1] 93 % of control | [3] 97 % of control | [5] 87 % of control

CSC(=S)NNC(=O)c1cccc([N+](=O)[O-])c1
inactive: dose: 6.25 mg/kg/injection, schedule: Q04DX003 (ip), vehicle: saline sonified 95 % of control | dose: 12.5 mg/kg/injection, schedule: Q04DX003 (ip), vehicle: saline sonified 100 % of control | dose: 25.0 mg/kg/injection, schedule: Q04DX003 (ip), vehicle: saline sonified 101 % of control

CN1CC2([N+](=O)[O-])C=CCC([N+](=O)[O-])(C1)C2 (centres undefined)
inactive: dose: 25.0 mg/kg/injection, schedule: Q01DX009 (ip), vehicle: water 98 % of control | dose: 50.0 mg/kg/injection, schedule: Q01DX009 (ip), vehicle: water 102 % of control | dose: 100.0 mg/kg/injection, schedule: Q01DX009 (ip), vehicle: water 104 % of control | dose: 200.0 mg/kg/injection, schedule: Q01DX009 (ip), vehicle: water 103 % of control

COc1ccc(CN2CCCN(Cc3ccc(OC)cc3OC)C2c2ccc(OC)cc2OC)c(OC)c1
inactive: dose: 50.0 mg/kg/injection, schedule: Q01DX001 (ip), vehicle: carboxymethylcellulose (CMC) 93 % of control | [18] 104 % of control | [19] 93 % of control | [20] 98 % of control

CCCCCCCCCC(=O)Nc1c(C)cccc1C
inactive: dose: 100.0 mg/kg/injection, schedule: Q04DX002 (ip), vehicle: saline with Tween-80 94 % of control | dose: 200.0 mg/kg/injection, schedule: Q04DX002 (ip), vehicle: saline with Tween-80 111 % of control | dose: 400.0 mg/kg/injection, schedule: Q04DX002 (ip), vehicle: saline with Tween-80 94 % of control

O=C(CCCC(=O)N/N=C/c1ccc2ccccc2n1)N/N=C\c1ccc2ccccc2n1
inactive: [15] 95 % of control | [16] 88 % of control | [17] 95 % of control

O=CNc1cc([N+](=O)[O-])cc([N+](=O)[O-])c1O
inactive: [2] 104 % of control | [4] 100 % of control | [6] 93 % of control
